Measured values published in PMC10064330, “Reversible Dual-Covalent Molecular Locking of the 14-3-3/ERRγ Protein–Protein Interaction as a Molecular Glue Drug Discovery Approach” (Journal of the American Chemical Society, 2023).
Square brackets hold non-standard residues; d marks the D form. Peptide text beside a SMILES is read from it. pS = N[C@@H](COP(=O)(O)O)C(=O)O

Assays:
14-3-3γ = molecular target: T1, 14-3-3γ (Homo sapiens, UniProt P61981); assay: FA binding of client phosphopeptides to 14-3-3γ (binary complex); conditions: no stabilizer (DMSO); read-out: KD of binary 14-3-3γ/peptide complex
T1 construct: made in house; host or cells: E. coli NiCo21 (DE3)
T1 sequence (P61981 1-247): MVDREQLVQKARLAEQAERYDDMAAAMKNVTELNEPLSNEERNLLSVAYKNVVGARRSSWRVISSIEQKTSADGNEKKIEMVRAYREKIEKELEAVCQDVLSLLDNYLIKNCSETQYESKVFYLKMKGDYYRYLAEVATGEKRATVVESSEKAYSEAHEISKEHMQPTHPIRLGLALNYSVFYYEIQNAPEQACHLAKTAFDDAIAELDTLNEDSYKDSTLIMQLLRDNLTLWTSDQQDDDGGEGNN

14-3-3γ/ERRγ complex = molecular target: T2, 14-3-3γ/ERRγ complex (Homo sapiens, UniProt P61981+P62508); assay: Fluorescence anisotropy (FA): 14-3-3γ titration to fluorescein-ERRγ phosphopeptide with 100 μM compound; assay type: binding; conditions: for stabilization factor SF100, Replicate 1 (Table S2) / stabilization factor SF100, Replicate 2 (Table S2) / stabilization factor SF100, Replicate 3 (Table S2) / stabilization factor SF100, Average (Table S2): KD DMSO control / apparent KD with 100 μM compound, 24 h; for stabilization factor SF100, Average (Table S2): average of three experiments
T2 construct: made in house; host or cells: E. coli NiCo21 (DE3)
Description: The stabilization of the ERRγ/14-3-3γ complex by the molecular locks was assessed using a fluorescence anisotropy (FA) assay where 14-3-3γ was titrated into a fluorescently labeled ERRγ phosphopeptide in the absence or presence of a 100 μM molecular lock (Figure 2a,b); this compound concentration was selected based on a FA compound titration assay (Figure S1).
Experimental Section Biophysical Assays
14-3-3γ protein expression (FA, TSA, MS assays)
A pPROEX HTb expression vector encoding the human 14-3-3 protein gamma (14-3-3γ) with a N-terminal his6-tag was transformed by heat shock into NiCo21 (DE3) competent cells. Single colonies were cultured in 50 mL LB medium (100 µg/mL ampicillin). After overnight incubation at 37 °C, cultures were transferred to 2 L TB media (100 µg/mL ampicillin, 1 mM MgCl2) and incubated at 37 °C until an OD600 nm of 0.8 -1.2 was reached. Protein expression was then induced with 0.4 mM isopropyl-β-d-thiogalactoside (IPTG), and cultures were incubated overnight at 18 °C. Cells were harvested by centrifugation (8600 rpm, 20 minu tes, 4 °C) and resuspended in lysis buffer (50 mM Hepes, pH 8.0, 300 mM NaCl, 12.5 mM imidazole, 5 mM MgCl2, 2 mM βME) containing cOmplete™ EDTA-free Protease Inhibitor Cocktail tablets (1 tablet/100 ml lysate) and benzonase ( 5 µl/100 ml). After lysis using a C3 Emulsiflex-C3 homogenizer (Avestin), the cell lysate was cleared by centrifugation (20000 rpm, 30 minutes, 4 °C) and purified using Ni2+-affinity chromatography (Ni -NTA superflow cartridges, Qiagen). Typically two 5 mL columns (flow 5 mL/min) were use d for a 2 L culture in which the lysate was loaded on the column , washed with 10 CV wash buffer (50 mM Hepes, pH 8.0, 300 mM NaCl, 25 mM imidazole, 2 mM βME), and eluted in several fractions (2-4 CV) of elution buffer (50 mM Hepes, pH 8.0, 300 mM NaCl, 250 mM imidazole, 2 mM βME). Fractions containing the 14 -3-3 protein were combined and dialyzed into 25 mM HEPES pH 8.0, 100 mM NaCl, 10 mM MgCl2, 500 µM TCEP. Finally, the protein was concentrated to ∼60 mg/mL, analyzed Q-Tof LC/MS, and aliquots were flash-frozen for storage at −80 °C.
14-3-3σΔc C38N protein expression (Crystallography)
A pPROEX HTb expression vector encoding the human 14-3-3 protein sigma truncated after T231 (14-3-3σΔc), mutated C38N, and containing a N-terminal his6-tag was transformed by heat shock into NiCo21 (DE3) competent cells. Single colonies were cultured in 50 mL LB medium (100 µg/mL ampicillin). After overnight incubation at 37 °C, cultures were transferred to 2 L TB media (100 µg/mL ampicillin, 1 mM MgCl2) and incubated at 37 °C until an OD600 nm of 0.8-1.2 was reached. Protein expression was then induced with 0.4 mM isopropyl-β-d-thiogalactoside (IPTG), and cultures were incubated overnight at 18 °C. Cells were harvested by centrifugation (8600 rpm, 20 minutes, 4 °C) and resuspended in lysis buffer (50 mM Hepes, pH 8.0, 300 mM NaCl, 12.5 mM imidazole, 5 mM MgCl2, 2 mM βME) containing cOmplete™ EDTA-free Protease Inhibitor Cocktail tablets (1 tablet/ 100 ml lysate) and benzonase (5 µl/ 100 ml). After lysis using a C3 Emulsiflex-C3 homogenizer (Avestin), […]
chromatography (Ni-NTA superflow cartridges, Qiagen). Typically two 5 mL columns were used for a 2 L culture in which the lysate was loaded on the column , washed with 10 CV wash buffer (50 mM Hepes, pH 8.0, 300 mM NaCl, 25 mM imidazole, 2 mM βME), and eluted with several fractions (2 -4 CV) of elution buffer (50 mM Hepes, pH 8.0, 300 mM NaCl, 250 mM imidazole, 2 mM βME). Fractions containing the 14-3-3 protein were combined and dialyzed into 25 mM HEPES pH 8.0, 200 mM NaCl, 10 mM MgCl 2, 2 mM βME. In addition, 1 mg TEV was added for each 100 mg purified protein to remove the purification tag. The cleaved sample was then again loaded on a 10 mL Ni-NTA column to separate the cleaved product from the expression tag and residual uncleaved protein. The flowthrough was loaded on a Superdex 75 pg 16/60 size exc lusion column (GE Life Sciences) using […]

## CC(=O)N[C@@H](CCCCN)C(=O)N[C@@H](CCCNC(=N)N)C(=O)N[C@@H](CCCNC(=N)N)C(=O)N[C@@H](CCCNC(=N)N)C(=O)N[C@@H](CCCCN)C(=O)N[C@@H](COP(=O)(O)O)C(=O)N[C@@H](CS)C(=O)N[C@@H](CCC(N)=O)C(=O)N[C@@H](C)C(N)=O [ERRγ] (Ac-KRRRK[pS]CQA-NH2; N-terminus and C-terminus assumed)
14-3-3γ
  Kd: 6.5 ± 0.9 µM

## CN(C)CCSSCCN(C)C(=O)c1ccc(C=O)cc1 [compound 4]
14-3-3γ/ERRγ complex
  stabilization factor SF100, Replicate 1 (Table S2): 13.0
  stabilization factor SF100, Replicate 2 (Table S2): 8.6
  stabilization factor SF100, Replicate 3 (Table S2): 9.0
  stabilization factor SF100, Average (Table S2): 10.2

## CN(C)CCSSCCN(C)C(=O)c1ccc(C=O)c(Br)c1 [compound 6]
14-3-3γ/ERRγ complex
  stabilization factor SF100, Replicate 1 (Table S2): 22.3
  stabilization factor SF100, Replicate 2 (Table S2): 14.3
  stabilization factor SF100, Replicate 3 (Table S2): 16.9
  stabilization factor SF100, Average (Table S2): 17.8

## CN(C)CCSSCCN(C)S(=O)(=O)c1ccc(C=O)cc1 [compound 7]
14-3-3γ/ERRγ complex
  stabilization factor SF100, Replicate 1 (Table S2): 13.4
  stabilization factor SF100, Replicate 2 (Table S2): 11.4
  stabilization factor SF100, Replicate 3 (Table S2): 8.6
  stabilization factor SF100, Average (Table S2): 11.2

## CN(C)CCSSCCN(C)C(=O)c1cccc(C=O)c1 [compound 8]
14-3-3γ/ERRγ complex
  stabilization factor SF100, Replicate 1 (Table S2): 25.5
  stabilization factor SF100, Replicate 2 (Table S2): 17.3
  stabilization factor SF100, Replicate 3 (Table S2): 19.0
  stabilization factor SF100, Average (Table S2): 20.6

## CN(C)CCSSCCN(C)C(=O)c1ccc(F)c(C=O)c1 [compound 9]
14-3-3γ/ERRγ complex; 100 μM compound, 24 h incubation
  stabilization of 14-3-3γ/ERRγ complex (SF100, fold): least active
14-3-3γ/ERRγ complex
  stabilization factor SF100, Replicate 1 (Table S2): 8.5
  stabilization factor SF100, Replicate 2 (Table S2): 5.4
  stabilization factor SF100, Replicate 3 (Table S2): 7.9
  stabilization factor SF100, Average (Table S2): 7.3
